From article PMC9299640, “Incorporation of β‐Alanine in Cu(II) ATCUN Peptide Complexes Increases ROS Levels, DNA Cleavage and Antiproliferative Activity” (Chemistry (Weinheim an Der Bergstrasse, Germany), 2021)

Assays:
[1] = test system: Ehrlich ascites tumor cells; conditions: cited from earlier work
From the text: Cowan et al. reported Cu(II) ATCUN complexes with anticancer, ‐viral, and ‐microbial activity as well as for DNA cleavage and enzyme inhibition.[3, 16, 17]

[2] = test system: HCT116 cells; test: Cellular uptake of Cu by ICP-MS; assay type: cell-based, human; conditions: HCT116, 70 μM, 24 h
Procedure: We aimed to correlate the antiproliferative activity to the accumulation of Cu in HCT116 cells. Therefore, cells were treated for 24 h with complexes Cu−GGH, 1, 3, 4 and CuCl2 (70 μM), and the Cu content of the samples was determined by ICP‐MS (Table S13). […] The higher Cu contents probably lead to enhanced oxidative stress levels in cells, which consequently results in higher antiproliferative activity.
The antiproliferative activity of selected Cu(II) ATCUN complexes was investigated towards different tumor cell lines (HCT116, NCI-H460, SiHa and SW480 cells) and expressed as the IC50 values. Additionally, cellular uptake studies in HCT116 tumor cells were carried out and the amount of Cu was determined with inductively coupled plasma mass spectrometry (ICP-MS).
Table S13. […]
with 0.4% sulforhodamine B (Sigma-Aldrich) in 1% acetic acid for 30 min in the dark at room temperature and then washed with 1% acetic acid to remove unbound dye. The stain was dissolved in unbuffered Tris base (10 mM, Serva) for 30 min on a plate shaker in the dark and quantified on a BioTek EL808 microplate reader at an absorbance of 490 nm with a reference wavelength of 450 nm to determine the percentage of cell-growth inhibition by determining the absorbance of each sample relative to a negative (no inhibitor) and a no-growth control (day 0). […]

[3] = test system: SW480 (colon adenocarcinoma); test: Antiproliferative activity, sulforhodamine B (SRB) assay; assay type: cell-based, human; conditions: after treatment with 70 μM, 72 h
Procedure: (§1) The antiproliferative activity of selected Cu(II) ATCUN complexes was investigated towards different tumor cell lines (HCT116, NCI-H460, SiHa and SW480 cells) and expressed as the IC50 values.
(§2) Table S13. Accumulation of Cu in HCT116 cells after 24 h incubation with Cu-GGH, 1, 3, 4 and CuCl2 (70 µM) as determined by ICP-MS (n = 3), and cytotoxic activity in human cancer cell lines HCT116, NCI-H460, SiHa and SW480 expressed as the IC50 ± SD (in µM) as well as by the residual viable cells after treatment with 70 μM of the respective compound (%) as determined by the SRB assay (exposure time 72 h). accumulated Cu IC50 values […]
(§3) a – indicates no antiproliferative activity observed after treatment with the respective compound at 70 μM for 72 h.
(§4) S-12.1 Determination of IC50 values against HCT116, NCI-H460, SiHa and SW480 […]
(§5) HCT116, SW480 and NCI-H460 cells were supplied by ATCC, while SiHa cells were supplied by Dr. David Cowan, of the Ontario Cancer Institute, Canada. The cells were grown in α-MEM (Life Technologies) supplemented with 5% fetal calf serum (Moregate Biotech) at 37 °C in a humidified incubator with 5% CO2. […]
(§6) in 96-well plates and left to settle for 24 h. Compounds were added as water solutions to the plates in a series of 3-fold dilutions for 72 h before the assay was terminated by addition of 10% trichloroacetic acid (Merck Millipore) at 4 °C for 1 h. Cells were stained […]
(§7) with 0.4% sulforhodamine B (Sigma-Aldrich) in 1% acetic acid for 30 min in the dark at room temperature and then washed with 1% acetic acid to remove unbound dye. The stain was dissolved in unbuffered Tris base (10 mM, Serva) for 30 min on a plate shaker in the dark and quantified on a BioTek EL808 microplate reader at an absorbance of 490 nm with a reference wavelength of 450 nm to determine the percentage of cell-growth inhibition by determining the absorbance of each sample relative to a negative (no inhibitor) and a no-growth control (day 0). IC50 values were calculated with SigmaPlot 12.5 (Systat Software Inc.) using a three-parameter logistic sigmoidal dose−response curve between the calculated growth inhibition and the compound concentration. The presented IC50 values are the mean of at least three independent experiments, where 10 concentrations were tested in duplicate for each compound.
(§8) Ventures), by diluting with a matrix-matched solution with regard to HNO3 and Tm concentration, producing calibration standards with concentrations of 0.5, 1, 3, 5, 7, 10, […]
(§9) The measured Cu concentrations in the cell accumulation samples were in the range of 27–82 μg/L. The reported values are the means of at least three independent accumulation experiments conducted in triplicates with blank wells for each substance to account for unspecific binding of the Cu(II) complexes to the plastic of the well plates.
(§10) Accumulation values have been corrected by subtracting the average amount Cu determined in the cell-free wells.
(§11) Calibration curves for Cu were prepared with concentrations ranging from 0.5–100 µg/L. The limit of detection (LOD) was defined as 3 times the random error in the y-direction (Sy/x) of the calibration curve divided by the slope of the calibration curve. The limit of quantification (LOQ) was defined as 10 times the random error in the y-direction (Sy/x) of the calibration curve divided by the slope of the calibration curve.42 The LOD was determined for Cu as 1.8 μg/L and the LOQ was 5.95 μg/L.

[4] = test system: NCI-H460 (non-small cell lung carcinoma); test: as above; assay type: cell-based, human; conditions: after treatment with 70 μM, 72 h
Procedure: as §1, §2, §3, §4, §5, §6, §7, §8, §9, §10, §11

[5] = test system: SiHa (cervical carcinoma); test: as above; assay type: cell-based, human; conditions: after treatment with 70 μM, 72 h
Procedure: as §1, §2, §3, §4, §5, §6, §7, §8, §9, §10, §11

[6] = test system: HCT116 (colorectal carcinoma); test: as above; assay type: cell-based, human; conditions: after treatment with 70 μM, 72 h
Procedure: as §1, §2, §3, §4, §5, §6, §7, §8, §9, §10, §11

[7] = test system: plasmid DNA pBR322; conditions: 50 μM complex (Cu(II):peptide 1:1.25), pBR322 0.2 μg, MOPS 50 mM pH 7.4, ascH− 1 mM, 1 h, 37 °C; at least three experiments
Procedure: The influence of Gly2 and β‐Ala2 in the ATCUN motif of complexes 1–7 on the oxidative plasmid DNA cleavage activity was tested by means of gel electrophoresis. […] In Figure 3 the nuclease activity of in situ prepared 1–7, Cu−GGH and CuCl2 in the presence of ascH^− as reducing agent is shown (pH 7.4, 37 °C).
Figure 3 (Top) Nuclease activity towards plasmid DNA pBR322 (0.2 μg) of Cu(II) ATCUN complexes Cu−GGH, 1–7 (50 μM) and CuCl2 in MOPS buffer (50 mM, pH 7.4) in the presence of ascH^− (1 mM) after incubation for 1 h at 37 °C. Lane 1: DNA ladder (form I, II and III), lane 2: DNA reference, lanes 3–10 as indicated, lane 11: CuCl2. (Bottom) Visualization of the extent of DNA cleavage in percent. Error bars represent the standard deviation from at least three experiments.
A suitable concentration at which DNA forms II and III are visible, was determined to be 35 μM through a concentration‐dependent DNA cleavage experiment (S‐6.2, 0–50 μM).
All DNA cleavage experiments were
performed at least in triplicate in order to ensure reproducibility. The standard deviations
are represented as the error bars.
The in situ prepared complexes 1–7 (50 µM CuCl2 / 62.5 µM ligand, Cu(II):peptide = 1:1.25,
see S-4) and their corresponding ligands a–g (62.5 µM) were incubated with plasmid DNA […]
(form II), and linear (Form III) DNA were visualized by fluorescence imaging of […]

[8] = pH 7.4, competitivity index (CI) method; cited from earlier work
Procedure: Table 1 CI values calculated at pH 7.4 for Cu(II) complexes 1–7 of peptides a–g (1 mM Cu(II), peptides L and virtual competitive ligand Z) based on respective stability constants. […] The high stability of Cu−GGH (CI7.4=12.4)[14] and the novel Cu(II) Gly2−ATCUN complexes 1 and 2 (CI7.4 13.61 and […], Table 1) by formation of 5,5,6‐chelates is assumed to be res ...

Substance: NH2−Gly−Gly−His−COOH [Cu−GGH, reference compound]
- antitumor effect in vivo (in words) [1]: killed Ehrlich ascites tumor cells in vivo
- cellular uptake (accumulated Cu content), approximate values [2]: ~0.3 μg Cu/4×10^5 cells
- residual viable cells SW480 [3]: 73 ± 17%
- residual viable cells NCI-H460 [4]: 74 ± 9%
- residual viable cells SiHa [5]: – (indicates no antiproliferative activity observed after treatment with the respective compound at 70 μM for 72 h)
- residual viable cells HCT116 [6]: 66 ± 21%
- extent of DNA cleavage, form II [7]: ~90%
- log K 7.4 / CI7.4 of Cu(II) complex [8]: 12.4
